Reference: patent US11505533B2, “Metabolically stable N-acylaminooxadiazoles useful as antibacterial agents” (MICROBIOTIX, INC., priority 2017, dated 2022)
≈ marks a conversion by molar mass, not a printed value. Entries after “also recorded” stand apart in the source; their conditions may differ. Like-named read-outs stand apart in the source and are kept apart here.

Columns and labels:
[1] = test system: S. aureus (MRSA-1234547263, Cip-res); assay type: cell-based; conditions: Staphylococcus aureus, MRSA
[2] = test system: MRSA-1094 (MDR); assay type: cell-based; conditions: Staphylococcus aureus, MRSA
[3] = test system: S. aureus (ATCC 35556, spec, kan-res); assay type: cell-based; conditions: Staphylococcus aureus, ATCC35556
[4] = test system: S. aureus NRS-77 (spec-res); assay type: cell-based; conditions: Staphylococcus aureus, NRS77
[5] = test system: S. aureus WTBF-19 (MSSA. osteomyelitis isolate); assay type: cell-based; conditions: Staphylococcus aureus, MSSA
[6] = test system: S. aureus ATCC 25923 (MSSA. osteomyelitis isolate); assay type: cell-based; conditions: Staphylococcus aureus
[7] = test system: MRSA USA 300 (BAA-1717); assay type: cell-based; conditions: Staphylococcus aureus
[8] = test system: MRSA N315 NRS-70; assay type: cell-based; conditions: Staphylococcus aureus
[9] = test system: S. pneumoniae 49619; assay type: cell-based; conditions: Streptococcus pneumoniae
[10] = test system: M. pneumoniae 15531; assay type: cell-based; conditions: Mycoplasmoides pneumoniae
[11] = test system: B. anthracis; assay: microbe, parasite or virus in culture; assay type: cell-based; conditions: Bacillus anthracis
[12] = test system: E. coli (700, TolC+) efflux pos; assay type: cell-based; conditions: Escherichia coli
[13] = test system: N. gonorrhoeae 49226; assay type: cell-based; conditions: Neisseria gonorrhoeae
[14] = test system: N. gonorrhoeae H041 (MDR including AZM and CTX); assay type: cell-based; conditions: Neisseria gonorrhoeae
[15] = test system: Yersinia pestis; assay: microbe, parasite or virus in culture; assay type: cell-based
[16] = test system: Brucella suis; assay: microbe, parasite or virus in culture; assay type: cell-based
[17] = test system: Franciscella tularensis (Schu13); assay: organism not typed; assay type: cell-based
[18] = test system: Moraxella catarrhalis 8176; assay type: cell-based
[19] = test system: Legionella pneumophila 33153; assay: microbe, parasite or virus in culture; assay type: cell-based
[20] = test system: Haemophilus influenza 35056; assay type: cell-based
[21] = test system: N. gonorrhoeae; assay: MIC90 determination, clinical isolates; assay type: cell-based; conditions: Neisseria gonorrhoeae
[22] = test system: Franciscella tularensis; assay: organism not typed; assay type: cell-based
[23] = test system: E. coli TolC(−); assay: TolC(−) MIC (NB); assay type: cell-based; conditions: Escherichia coli, read-out: TolC(−) MIC (μM)(NB)
[24] = Caco-2 permeability; assay type: in vitro ADME; conditions: human, direction not given
From the text: Res., 15(5): 726-733 (1998).

[25] = test system: E. coli TolC(−); conditions: MIC in the presence of 10% fetal calf serum versus without
[26] = Mouse serum stability; conditions: 5 μM, 37° C., 4 h
[27] = Mammalian cell cytotoxicity
[28] = Microsomal stability + NADPH; conditions: mouse liver microsomes, 0.5 hr at 37° C.
[29] = Aqueous solubility, nephelometry; conditions: water, kinetic from dmso stock
[30] = Mouse serum binding, equilibrium dialysis
[31] = test system: trans-translation; conditions: dose response assay; Ramadoss et al., PNAS 2013; cited from earlier work
[32] = test system: mammalian systems; conditions: even in the context of prolonged exposure; cited from earlier work
[33] = test system: translation; conditions: specific inhibitor of trans-translation; cited from earlier work
[34] = Preliminary PK studies in mice; conditions: IV or IP dosing at 10 mg/kg, data not shown
[35] = Stability in liver microsomes in vitro; conditions: mouse or human liver microsomes in vitro; data not shown

## O=C(Nc1nnc(-c2ccc(F)cc2)o1)N1CCc2ccccc2C1 [compound 4132, N-[5-(4-fluorophenyl)-1,3,4-oxadiazol-2-yl]-3,4-dihydroisoquinoline-2(1H)-carboxamide]
[1]
  MIC: 3.17 µg/mL (≈ 9.37 µM)
[2]
  MIC: 3.17 µg/mL (≈ 9.37 µM)
[3]
  MIC: 4.23 µg/mL (≈ 12.5 µM)
[4]
  MIC: 3.17 µg/mL (≈ 9.37 µM)
[5]
  MIC: 4.23 µg/mL (≈ 12.5 µM)
[6]
  MIC: 6.34 µg/mL (≈ 18.7 µM)
[7]
  MIC: 1.06 µg/mL (≈ 3.13 µM)
[8]
  MIC: 6.34 µg/mL (≈ 18.7 µM)
[9]; 49619
  MIC: 33.8 µg/mL (≈ 99.9 µM)
[10]; 15531
  MIC: > 33.8 µg/mL
[11]
  MIC: 4.06 µg/mL (≈ 12 µM)
[12]
  MIC: > 35 µg/mL
[13]; 49226
  MIC: 0.18 µg/mL (≈ 0.532 µM)
[14]
  MIC: 0.13 µg/mL (≈ 0.384 µM)
[15]
  MIC: 8.46 µg/mL (≈ 25 µM)
[16]
  MIC: 4.23 µg/mL (≈ 12.5 µM)
[17]
  MIC: 0.13 µg/mL (≈ 0.384 µM)
[18]
  MIC: 0.034 µg/mL (≈ 0.1 µM)
[19]
  MIC: 8.46 µg/mL (≈ 25 µM)
[20]; Haemophilus, 35056
  MIC: 16.9 µg/mL (≈ 50 µM)
[21]
  MIC90: 0.54 µg/mL (≈ 1.6 µM)
[22]
  MIC90: 0.13 µg/mL (≈ 0.384 µM)
[23]
  MIC: 7.87 µM (≈ 2.66 µg/mL)
[24]
  Papp: 65.8 ×10⁻⁶ cm/s
[25]
  Fold Serum Shift vs. TolC(−): 12.7 fold
[26]
  Serum Stability (% remain): >95%
[27]
  CC50: 27.2 µM
[28]
  Microsomal Stability + NADPH % degraded: 27%
[29]
  solubility: 6.25 µM (≈ 2.11 µg/mL)

## O=C(Nc1nnc(-c2ccc(F)cc2)o1)c1ccc(Oc2ccccc2)nc1 [compound 4237, 2-(6-phenoxynicotinamido)-5-(4-fluorophenyl)-1,3,4-oxadiazole]
[1]
  MIC: 2.35 µg/mL (≈ 6.24 µM)
[2]
  MIC: 2.35 µg/mL (≈ 6.24 µM)
[3]
  MIC: 2.35 µg/mL (≈ 6.24 µM)
[4]; S. aureus NRS-77 (spec-res), read-out: MIC
  MIC: 2.96 µg/mL (≈ 7.87 µM)
[5]
  MIC: 2.35 µg/mL (≈ 6.24 µM)
[6]
  MIC: 2.35 µg/mL (≈ 6.24 µM)
[7]; MRSA USA 300 (BAA-1717), read-out: MIC
  MIC: 2.1 µg/mL (≈ 5.58 µM)
[8]; MRSA N315 NRS-70, read-out: MIC
  MIC: 4.7 µg/mL (≈ 12.5 µM)
[9]; S. pneumoniae 49619, read-out: MIC
  MIC: 4.7 µg/mL (≈ 12.5 µM)
[10]; M. pneumoniae 15531, read-out: MIC
  MIC: 18.8 µg/mL (≈ 50 µM)
[12]; E. coli (700, TolC+) efflux pos, read-out: MIC
  MIC: > 39 µg/mL
[13]; N. gonorrhoeae 49226, read-out: MIC
  MIC: 0.75 µg/mL (≈ 1.99 µM)
[17]
  MIC: 0.75 µg/mL (≈ 1.99 µM)
[18]; read-out: MIC
  MIC: 0.06 µg/mL (≈ 0.159 µM)
[19]
  MIC: 0.87 µg/mL (≈ 2.31 µM)
[20]; Haemophilus influenza 35056, read-out: MIC
  MIC: 9.41 µg/mL (≈ 25 µM)
[22]
  MIC90: 1.51 µg/mL (≈ 4.01 µM)
[23]
  MIC: 1.56 µM (≈ 0.588 µg/mL)
[24]
  Papp: 12.7 ×10⁻⁶ cm/s
[26]
  Serum Stability (% remain): >95%
[27]
  CC50: > 100 µM
[28]
  Microsomal Stability + NADPH % degraded: 9%
[29]
  solubility: 6.25 µM (≈ 2.35 µg/mL)
[30]
  fraction unbound: 0.002

## O=C(Nc1nnc(-c2ccc(F)cc2)o1)c1ccc(Cl)cc1 [KKL-35]
[31]
  IC50: 0.9 µM
[32]
  cytotoxicity: lack of cytotoxicity
[33]
  effect on translation: no effect on translation
[34]
  bioavailability in mice: extremely poor bioavailability; also recorded: undetectable in mouse serum at 6 h
[35]
  stability in the presence of liver microsomes: poor microsomal stability; also recorded: no detectable material after 5 min
